# Experimental data published in patent US12679860B2, “C-terminal HSP90 inhibitors” (UNIVERSITY OF KANSAS, priority 2012, dated 2026).
# Read-outs that look alike come from different tables or passages of the source.
# Key:
# [1] = system: embryonic dorsal root ganglion (DRG) sensory neuron cultures; assay: Glucotoxicity assay: cell viability (calcein AM) of DRG sensory neurons under glucose-induced toxicity; assay type: cell-based, Sprague Dawley rat; conditions: for EC50: 0.1-1000 nM novologue overnight, then 4 hrs of hyperglycemia, mean±SEM (n=3-8), read-out: EC50 for protection against glucose-induced toxicity
# Experimental: DRG sensory neurons were incubated in the absence or presence of 0.1-1000 nM of the indicated novologue overnight and then subjected to 4 hrs of hyperglycemia.
# The ganglia were sedimented at 1,000×g for 5 min, resuspended in growth media [phenol red free Neurobasal medium (Gibco, Grand Island, NY) containing 25 mM glucose, 1X B-27 additive, 50 ng/ml NGF (Harlan Bioscience, Indianapolis, IN), 4 mM glutamine, 100 U/mL penicillin and 100 μg/mL streptomycin] and triturated with a fire-polished glass pipette. The cells were cultured on collagen-coated (0.1 mg/mL collagen followed by overnight air drying in a laminar flow hood) black-walled 96-well plates (Corning Incorporated Corning, NY) at a seeding density of 2-3×10^4 cells per well. DRG neurons were re-fed the next day with fresh growth media containing 40 μM fluorodeoxyuridine and 10 μM cytosine β-D-arabinoside (both from Sigma Aldrich, St. Louis, MO) for 2 days to remove proliferating cells. Experiments were performed on DRG neurons on the third day in culture after placing the cells in fresh growth medium. […]
# DRG neurons were incubated overnight with the test compounds in the presence of Neurobasal medium, 50 ng/ml NGF and antibiotics only. In order to monitor the efficiency of the compounds in protecting DRG neurons against glucotoxicity, Calcein AM (Invitrogen, Carlsbad, CA) was utilized to measure cell viability. Hydrolysis of calcein AM to a fluorescent product can only occur in live cells. Excess glucose was added to the cultures for 4 hrs and cell viability was measured by incubating the cells with 2 μM calcein AM for 30 min in the dark at 37° C. Fluorescence was then measured using a plate reader with excitation and emission wavelengths set to 485 nm and 520 nm, respectively. The arbitrary fluorescence readings were normalized to the total amount of protein from each respective well of the neuronal cultures. The protein concentrations in each well were determined using the DC protein assay (Bio-Rad). Significant differences in the efficacy of the novologues for increasing cell viability were determined using a Kruskal-Wallis non-parametric ANOVA and Dunn's post-test.
# [2] = system: myelinated cultures of sensory neurons prepared from Hsp70.1 and 70.3 double knockout mice; conditions: sensory neurons from Hsp70.1 and 70.3 double knockout mice; cited from earlier work
# diabetic mice = conditions: weekly treatment, cited from earlier work
# Hsp70 = assay: Immunoblot analysis of induction of Hsp70 in DRG sensory neurons; assay type: cell-based, Sprague Dawley rat; conditions: 24 hours incubation, then 4 hours of glucotoxic stress; Hsp70 normalized to β-actin
# Experimental: DRG sensory neurons were incubated in the presence of DMSO (Cntrl) or 10-1000 nM of the indicated novologue overnight and then subjected to 4 hrs of hyperglycemia. The neurons were harvested and Hsp70 and β-actin levels were determined by immunoblot analysis. Band intensity was quantified using Image J, Hsp70 expression was normalized to the level of β-actin.
# Since it was previously shown that the cytoprotective activity manifested by KU-32 requires Hsp70, the ability of 11b and 11n to induce Hsp70 was determined relative to KU-32. Increasing concentrations of KU-32, 11n, and 11b were incubated with DRG sensory neurons for 24 hours before the cells were subjected to 4 hours of glucotoxic stress. Hsp70 levels were examined by performing immunoblot analysis with the cellular lysates (FIG. 5). 11n and 11b induced Hsp70 levels at similar concentrations (10 nM) as those needed for neuroprotection.
# DRG from embryonic day 15-18 Sprague Dawley rat pups were harvested into Leibovitz's L15 medium (L15) and dissociated with 0.25% trypsin for 30 min at 37° C. […]
Compound,EC50 [1] [nM],prevention of neuregulin-induced demyelination [2],reversal of clinical indices of DPN (diabetic mice; diabetic Hsp70 knockout mice),sensory and motor nerve function (diabetic mice; diabetic wild type mice),protection against glucose-induced toxicity (in words) ([1]; 1 μM novologue + 20 mM excess glucose),"EC50 ([1]; Rattus norvegicus, Neuron) [nM]","viability at 1 µM ([1]; Rattus norvegicus, Neuron, Table 1, 1 μM of each novologue + 20 mM excess glucose, glucose + DMSO was 54% ± 2) [%]",concentration at which Hsp70 levels were induced (Hsp70) [nM]
CO[C@@H]1[C@@H](O)[C@@H](O)[C@H](Oc2ccc3cc(NC(C)=O)c(=O)oc3c2C)OC1(C)C [KU-32],240 ± 42.5,ineffective,unable to reverse multiple clinical indices of DPN,restored normal sensory and motor nerve function,,,,
"CO[C@@H]1[C@@H](O)[C@@H](O)C(Oc2ccc(CCNC(C)=O)c(-c3cccc(F)c3)c2)OC1(C)C (stereo partly drawn) [11b, N-(2-(5-(((3R,4S,5R)-3,4-dihydroxy-5-methoxy-6,6-dimethyltetrahydro-2H-pyran-2-yl)oxy)-3′-fluoro-[1,1′-biphenyl]-2-yl)ethyl)acetamide]",,,,,showed significant protection against glucotoxicity,13 ± 3.6,95,10
